The numbers were not newly measured in patent US6417229B1, “α-sulfonylamino hydroxamic acid inhibitors of matrix metalloproteinases for the treatment of peripheral or central nervous system disorders” (Pfizer Inc, priority 1999, dated 2002), which cites them from elsewhere.

Structures are written as SMILES.

Data set [1] relates to Experimental Autoimmune Neuritis (EAN). To be noted: Redford et al. 1997.
The next data set concerns MMP-9 induction by Aβ. To be noted: rat microglia; Gottschall 1996.
Data set [2] relates to Experimental Autoimmune Encephelomyelitis (EAE). To be noted: mice with EAE; Gijbels 1994.

As for `C=CC[C@H](C(=O)NO)[C@@H](CC(C)C)C(=O)N[C@@H](Cc1ccccc1)C(=O)NC` [BB-1101], the “effect on EAN” value in data set [1] is listed as “attenuates Experimental Autoimmune Neuritis (EAN)”. As to `COc1ccc2c(c1)c(CC(=O)O)c(C)n2C(=O)c1ccc(Cl)cc1` [indomethacin], the “inhibition of MMP-9 induction by Aβ” value in the data set with MMP-9 induction by Aβ is given as “can be inhibited”.

As for `CNC(=O)[C@H](Cc1c[nH]c2ccccc12)NC(=O)[C@@H](CC(=O)NO)CC(C)C` [GM6001], the “effect on EAE” value in data set [2] is reported as “suppress the development of, or reverse established, EAE”.
